Measurements: patent publication US11180474B2 (BRISTOL-MYERS SQUIBB COMPANY, priority 2016, dated 2021)

Columns and labels:
human TLR7 = target: T1, human TLR7 (Homo sapiens, UniProt Q9NYK1); assay: TLR7 inhibition reporter assay (HEK-Blue cells, SEAP reporter, gardiquimod stimulation); type: cell-based; details: HEK-Blue cells overexpressing human TLR7, gardiquimod 7.5 μM
T1 construct: host or cells: HEK-Blue cells
T1 sequence (Q9NYK1 27-1049): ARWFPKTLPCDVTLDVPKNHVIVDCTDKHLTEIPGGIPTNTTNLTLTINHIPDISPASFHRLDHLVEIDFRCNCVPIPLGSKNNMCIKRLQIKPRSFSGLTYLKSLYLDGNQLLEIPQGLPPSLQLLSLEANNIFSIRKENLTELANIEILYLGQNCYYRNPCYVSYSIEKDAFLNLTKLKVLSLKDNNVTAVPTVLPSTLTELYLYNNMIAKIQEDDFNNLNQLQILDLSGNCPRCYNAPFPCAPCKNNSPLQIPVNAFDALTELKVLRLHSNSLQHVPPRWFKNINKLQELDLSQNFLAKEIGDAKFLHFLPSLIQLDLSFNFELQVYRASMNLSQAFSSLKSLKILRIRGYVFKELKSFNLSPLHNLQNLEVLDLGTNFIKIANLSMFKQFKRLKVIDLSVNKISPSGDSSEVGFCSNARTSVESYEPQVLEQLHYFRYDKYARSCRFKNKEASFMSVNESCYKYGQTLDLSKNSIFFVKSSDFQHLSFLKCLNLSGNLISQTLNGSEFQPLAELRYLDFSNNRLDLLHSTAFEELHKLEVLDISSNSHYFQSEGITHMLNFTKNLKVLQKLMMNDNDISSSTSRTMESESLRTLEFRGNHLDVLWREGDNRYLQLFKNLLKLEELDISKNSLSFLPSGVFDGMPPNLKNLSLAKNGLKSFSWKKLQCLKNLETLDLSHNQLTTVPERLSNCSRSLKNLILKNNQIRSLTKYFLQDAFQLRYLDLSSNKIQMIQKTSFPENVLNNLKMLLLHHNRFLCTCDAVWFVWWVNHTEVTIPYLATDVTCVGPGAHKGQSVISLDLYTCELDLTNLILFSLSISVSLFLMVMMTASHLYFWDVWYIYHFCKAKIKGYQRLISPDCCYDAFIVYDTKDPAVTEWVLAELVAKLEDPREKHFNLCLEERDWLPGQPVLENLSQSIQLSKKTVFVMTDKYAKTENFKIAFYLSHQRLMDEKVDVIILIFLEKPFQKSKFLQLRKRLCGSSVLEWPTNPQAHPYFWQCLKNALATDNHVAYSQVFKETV
Method in brief: (§1)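 HEK-Blue reporter cells (15,000/well TLR7, 20,000 TLR8) exposed to compound over 0.05 nM–50 μM, agonist-stimulated (R848 for TLR8, gardiquimod for TLR7), 22 h at 37 °C, 5% CO2. SEAP read with HEK-Blue Detection; % inhibition relative to agonist-plus-DMSO and known-inhibitor controls.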

human TLR8 = target: T2, human TLR8 (Homo sapiens, UniProt Q9NR97); assay: TLR8 inhibition reporter assay (HEK-Blue cells, SEAP reporter, R848 stimulation); type: cell-based; details: HEK-Blue cells overexpressing human TLR8, R848 15.9 μM
T2 construct: host or cells: HEK-Blue cells
T2 sequence (Q9NR97 27-1041): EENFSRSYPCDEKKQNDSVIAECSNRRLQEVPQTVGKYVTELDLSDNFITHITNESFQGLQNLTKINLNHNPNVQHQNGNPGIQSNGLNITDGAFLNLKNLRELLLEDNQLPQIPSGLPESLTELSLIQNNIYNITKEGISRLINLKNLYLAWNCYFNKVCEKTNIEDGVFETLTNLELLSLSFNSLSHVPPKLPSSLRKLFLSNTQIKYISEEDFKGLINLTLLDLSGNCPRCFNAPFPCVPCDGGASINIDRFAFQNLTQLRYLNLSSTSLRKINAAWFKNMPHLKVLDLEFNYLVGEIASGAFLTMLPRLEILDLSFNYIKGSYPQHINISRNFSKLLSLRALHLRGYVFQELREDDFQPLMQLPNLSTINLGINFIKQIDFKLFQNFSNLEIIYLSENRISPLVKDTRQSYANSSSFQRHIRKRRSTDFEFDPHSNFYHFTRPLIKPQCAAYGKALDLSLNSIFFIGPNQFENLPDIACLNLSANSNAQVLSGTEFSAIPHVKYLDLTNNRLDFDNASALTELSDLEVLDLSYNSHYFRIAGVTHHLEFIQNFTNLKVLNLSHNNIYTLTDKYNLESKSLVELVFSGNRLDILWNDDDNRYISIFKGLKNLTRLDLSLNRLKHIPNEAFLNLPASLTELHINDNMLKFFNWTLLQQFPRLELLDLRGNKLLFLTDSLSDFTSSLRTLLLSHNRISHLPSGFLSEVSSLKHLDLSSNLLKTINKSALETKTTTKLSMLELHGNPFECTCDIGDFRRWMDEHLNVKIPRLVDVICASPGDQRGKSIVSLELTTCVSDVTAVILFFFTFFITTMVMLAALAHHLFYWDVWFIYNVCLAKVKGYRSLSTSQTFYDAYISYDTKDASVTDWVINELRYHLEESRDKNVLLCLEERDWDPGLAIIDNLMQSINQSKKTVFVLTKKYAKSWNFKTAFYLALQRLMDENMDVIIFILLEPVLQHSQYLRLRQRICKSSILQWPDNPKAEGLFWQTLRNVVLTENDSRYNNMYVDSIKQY
Method in brief: as §1

| Compound | IC50 (human TLR7) [nM] | IC50 (human TLR8) [nM] |
| --- | --- | --- |
| COc1ccc(-c2[nH]c3ccc(C4CCN(C5CCN(Cc6ccccc6)CC5)CC4)cc3c2C)cc1OC [Example 9, 5-(1′-benzyl-[1,4′-bipiperidin]-4-yl)-2-(3,4-dimethoxyphenyl)-3-methyl-1H-indole] | 1550 | 457 |
| CCc1c(-c2ccc(OC)c(OC)c2)[nH]c2ccc(C3CCN(C(=O)CN(C)C)CC3)cc12 [Example 181, 1-(4-(2-(3,4-dimethoxyphenyl)-3-ethyl-1H-indol-5-yl)piperidin-1-yl)-2-(dimethylamino) ethanone] | 52 | 66 |
| CCc1c(-c2ccc(OC)c(OC)c2)[nH]c2ccc(C3CCN(C(=O)CN4CCCC(C(=O)O)C4)CC3)cc12 (racemic) [Example 176, 1-(2-(4-(2-(3,4-dimethoxyphenyl)-3-ethyl-1H-indol-5-yl)piperidin-1-yl)-2-oxoethyl)piperidine-3-carboxylic acid] | 8920 | 6550 |
| CCc1c(-c2ccc(OC)c(OC)c2)[nH]c2ccc(C3CCN(C4CCN(CC(C)C)CC4)CC3)cc12 [Example 123, 2-(3,4-dimethoxyphenyl)-3-ethyl-5-(1′-isobutyl-[1,4′-bipiperidin]-4-yl)-1H-indole-di-trifluoroacetic acid] | 398 | 150 |
| CNCCN1CCC(c2ccc3[nH]c(-c4ccc(OC)c(OC)c4)c(CC(C)C)c3c2)CC1 [Example 116, trifluoroacetic acid] | 1290 | 95 |
| CCc1c(-c2ccc(OC)c(OC)c2)[nH]c2ccc(C3CCN(C(=O)CN4CCCC(C(=O)N(CC)CC)C4)CC3)cc12 (single isomer, unassigned) [Example 179, 1-(2-(4-(2-(3,4-dimethoxyphenyl)-3-ethyl-1H-indol-5-yl)piperidin-1-yl)-2-oxoethyl)-N,N-diethylpiperidine-3-carboxamide] | 280 | 68 |
| CCc1c(-c2ccc(OC)c(OC)c2)[nH]c2ccc(C3CCN(C4CCN(Cc5ccn(C)n5)CC4)CC3)cc12 [Example 133, 2-(3,4-dimethoxyphenyl)-3-ethyl-5-(1′-((1-methyl-1H-pyrazol-3-yl)methyl)-[1,4′-bipiperidin]-4-yl)-1H-indole] | 208 | 160 |
| CCc1c(-c2ccc(OC)c(OC)c2)[nH]c2ccc(C3CCN(C4CCN(Cc5cc6ccccc6[nH]5)CC4)CC3)cc12 [Example 128, 5-(1′-((1H-indol-2-yl)methyl)-[1,4′-bipiperidin]-4-yl)-2-(3,4-dimethoxyphenyl)-3-ethyl-1H-indole] | 3280 | 629 |
| CCc1c(-c2ccc(OC)c(OC)c2)[nH]c2ccc(C3CCN(C4CCN(Cc5cnc(C)o5)CC4)CC3)cc12 [Example 124, 5-((4-(2-(3,4-dimethoxyphenyl)-3-ethyl-1H-indol-5-yl)-[1,4′-bipiperidin]-1′-yl)methyl)-2-methyloxazole] | 1870 | 248 |
| CCc1c(-c2ccc(OC)c(OC)c2)[nH]c2ccc(C3CCN(C(=O)CNCCO)CC3)cc12 [Example 159, 1-(4-(2-(3,4-dimethoxyphenyl)-3-ethyl-1H-indol-5-yl)piperidin-1-yl)-2-((2-hydroxyethyl)amino) ethan-1-one] | 42 | 26 |
| CCc1c(-c2ccc(OC)c(OC)c2)[nH]c2ccc(C3CCN(C4CCN(Cc5cc(C)nn5C)CC4)CC3)cc12 [Example 132, 2-(3,4-dimethoxyphenyl)-5-(1′-((1,3-dimethyl-1H-pyrazol-5-yl)methyl)-[1,4′-bipiperidin]-4-yl)-3-ethyl-1H-indole] | ≥ 50000 | ≥ 50000 |
| CCc1c(-c2ccc(OC)c(OC)c2)[nH]c2ccc(C3CCN(C(=O)C4CCCNC4)CC3)cc12 (stereo not shown) [Example 184, (4-(2-(3,4-dimethoxyphenyl)-3-ethyl-1H-indol-5-yl)piperidin-1-yl)(piperidin-3-yl)methanone] | 191 | 136 |
| CCc1c(-c2ccc(OC)c(OC)c2)[nH]c2ccc(C3CCN(C4CCN(Cc5ccc(C)s5)CC4)CC3)cc12 [Example 140, 2-(3,4-dimethoxyphenyl)-3-ethyl-5-(1′-((5-methylthiophen-2-yl)methyl)-[1,4′-bipiperidin]-4-yl)-1H-indole] | 1020 | 240 |

Continued by falling IC50 (human TLR7), values first:

| IC50 (human TLR7) [nM] | IC50 (human TLR8) [nM] | Compound |
| --- | --- | --- |
| 4690 | 1290 | CCc1c(-c2ccc(OC)c(OC)c2)[nH]c2ccc(C3CCN(C4CCN(Cc5cc6ccccc6n5C)CC4)CC3)cc12 [Example 137, 2-(3,4-dimethoxyphenyl)-3-ethyl-5-(1′-((1-methyl-1H-indol-2-yl)methyl)-[1,4′-bipiperidin]-4-yl)-1H-indole] |
| 1470 | 364 | CCc1c(-c2ccc(OC)c(OC)c2)[nH]c2ccc(C3CCN(C4CCN(Cc5cnc(C)[nH]5)CC4)CC3)cc12 [Example 153, 2-(3,4-dimethoxyphenyl)-3-ethyl-5-(1′-((2-methyl-1H-imidazol-5-yl)methyl)-[1,4′-bipiperidin]-4-yl)-1H-indole] |
| 1230 | 247 | COc1ccc(-c2[nH]c3ccc(C4CCN(C5CCN(CC(C)C)CC5)CC4)cc3c2C)cc1OC [Example 6, 2-(3,4-dimethoxyphenyl)-5-(1′-isobutyl-[1,4′-bipiperidin]-4-yl)-3-methyl-1H-indole] |
| 182 | 150 | CCc1c(-c2ccc(OC)c(OC)c2)[nH]c2ccc(C3CCN(C4CCN(Cc5c[nH]cn5)CC4)CC3)cc12 [Example 125, 5-(1′-((1H-imidazol-4-yl)methyl)-[1,4′-bipiperidin]-4-yl)-2-(3,4-dimethoxyphenyl)-3-ethyl-1H-indole] |
| 160 | 112 | CCN(CC)C(=O)CCN(C)CC(=O)N1CCC(c2ccc3[nH]c(-c4ccc(OC)c(OC)c4)c(C(C)C)c3c2)CC1 [Example 204, 3-((2-(4-(2-(3,4-dimethoxyphenyl)-3-isopropyl-1H-indol-5-yl)piperidin-1-yl)-2-oxoethyl)(methyl)amino)-N,N-diethylpropanamide] |
| 142 | 41 | CCc1c(-c2ccc(OC)c(OC)c2)[nH]c2ccc(C3CCN(C(=O)CN4CCCC(C(=O)N(CC)CC)C4)CC3)cc12 (stereo not shown) [Example 168, 1-(2-(4-(2-(3,4-dimethoxyphenyl)-3-ethyl-1H-indol-5-yl)piperidin-1-yl)-2-oxoethyl)-N,N-diethylpiperidine-3-carboxamide] |
| 43 | 25 | CCc1c(-c2ccc(OC)c(OC)c2)[nH]c2ccc(C3CCN(C(=O)CN4CC[C@@H](O)C4)CC3)cc12 [Example 173, (R)-1-(4-(2-(3,4-dimethoxyphenyl)-3-ethyl-1H-indol-5-yl)piperidin-1-yl)-2-(3-hydroxypyrrolidin-1-yl)ethan-1-one] |
